The nature of data set [1]: in vitro. Format: in vitro ADME. The settings on record: mouse, plasma, pH 7.4. The method, then: (§1) Plasma protein binding and brain homogenate binding for study compounds in mouse, dog, and rat by rapid equilibrium dialysis
(§2) In practice, unbound fractions in plasma and brain tissue were assessed using rapid equilibrium dialysis in vitro. Separately a pharmacokinetic study was run in vivo whereby a dose of the compound of interest was given at T=0 hours and at subsequent timepoints (eg 0.5, 1 and 4 hours) plasma and separately brain samples were analysed for total concentration of the compound of interest. These total concentrations could then be adjusted with the unbound fraction to give the unbound concentrations in the plasma and brain.
(§3) The test compounds were incubated in plasma and brain homogenate from the relevant species at 37 °C in RED device with inserts (8K MWCO, Thermo scientific) for 4 hours at 5 µM in triplicates. 350 µL of 150 mM phosphate buffered saline (PBS, pH 7.4) was used as the receiver side solutions. […] After 10-minute centrifugation at 13 200 rpm, the sample supernatants were analysed with an LC-MS/MS, to obtain the unbound fraction of the test compound (Fub). The unbound fraction was calculated from the peak area ratios obtained for each matrix: Fub = CPBS /Cplasma; [formula] where CPBS and Cplasma are the analyte concentrations in PBS (receiver) and plasma (donor), respectively. […]

Data set [2] is described as follows: Blood-brain-barrier permeability in mice after IV administration. The settings on record: 3 mg/kg intravenously, 0.5 hours after dosing.
Method: (§18) The compound is administered to the animal in a suitable vehicle at T=0 hours. At 0.5 hours post administration plasma and separately brain are removed, prepared and analysed for total compound concentration.
(§19) Temperature: 45 °C Injection Volume: 1.5 µl for brain, 4 µl for plasma Ion Source: ESI+, SRM detection
(§20) The unbound partition coefficient (Kpuu) was determined as a ratio between the free compound concentrations in plasma and brain: Kpuu = (Cub,brain)/(Cub,plasma) [formula]
(§21) Where Cu,brain = unbound concentration in brain (C × Fub, brain); wherein • C = concentration at steady state; and • Cub,plasma = unbound concentration in plasma (C × Fub).
The nature of data set [3]: in vitro. The settings on record: mouse, brain homogenate, pH 7.4. The data set is classed as in vitro ADME. The method, then: as §1, §2, §3
A short description of the next data set: in vivo. The settings on record: male, CD1 (ICR), mouse.
The target of a further data set is T1, h-Sortilin (Homo sapiens, UniProt Q99523).
T1 sequence (Q99523 78-831): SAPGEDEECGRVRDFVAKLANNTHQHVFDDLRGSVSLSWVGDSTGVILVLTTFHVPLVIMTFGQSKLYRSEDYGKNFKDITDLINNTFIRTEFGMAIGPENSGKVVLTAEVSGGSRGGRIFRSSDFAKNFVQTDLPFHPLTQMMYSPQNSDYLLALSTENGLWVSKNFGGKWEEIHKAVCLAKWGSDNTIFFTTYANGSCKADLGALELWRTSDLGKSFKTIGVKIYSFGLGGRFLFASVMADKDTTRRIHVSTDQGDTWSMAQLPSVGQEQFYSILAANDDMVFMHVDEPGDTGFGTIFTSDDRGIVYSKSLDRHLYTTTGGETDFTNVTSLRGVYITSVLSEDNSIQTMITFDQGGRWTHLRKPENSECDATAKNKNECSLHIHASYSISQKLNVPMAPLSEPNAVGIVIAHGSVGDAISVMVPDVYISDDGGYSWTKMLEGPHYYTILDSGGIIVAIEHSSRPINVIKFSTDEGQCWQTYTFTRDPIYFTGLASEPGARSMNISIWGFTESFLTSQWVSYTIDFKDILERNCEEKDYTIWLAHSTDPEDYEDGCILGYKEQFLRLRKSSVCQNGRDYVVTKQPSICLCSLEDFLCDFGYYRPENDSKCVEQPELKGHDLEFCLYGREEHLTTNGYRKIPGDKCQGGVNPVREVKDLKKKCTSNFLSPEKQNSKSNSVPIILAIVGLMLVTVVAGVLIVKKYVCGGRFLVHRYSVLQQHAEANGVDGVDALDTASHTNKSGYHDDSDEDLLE
In words: Neurotensin scintillation proximity assay (displacement of [3H]-neurotensin binding). The settings on record: 150 nM 6his-Sortilin, 5 nM [3H]-Neurotensin; average of at least 2 determinations; read-out: IC50 [3H]Neurotensin SPA. The gist of the method:
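Compounds pre-incubated 30 min at room temperature with 150 nM 6His-sortilin in HEPES pH 7.4 buffer with NaCl, CaCl2, BSA and Tween-20, then 5 nM [3H]-neurotensin and Ni chelate SPA beads added; read after 6 h. IC50 from 8-point variable-slope fits, mean of at least 2 determinations.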
Background: SPA uses beads or plates that emit light when radiolabelled molecules are held near them.

In data set [4] the target is T2, Sortilin (Mus musculus, UniProt Q6PHU5).
T2 construct: purchased Bio-Techne Ltd 2934-ST-050
T2 sequence (Q6PHU5 76-753 limits assumed): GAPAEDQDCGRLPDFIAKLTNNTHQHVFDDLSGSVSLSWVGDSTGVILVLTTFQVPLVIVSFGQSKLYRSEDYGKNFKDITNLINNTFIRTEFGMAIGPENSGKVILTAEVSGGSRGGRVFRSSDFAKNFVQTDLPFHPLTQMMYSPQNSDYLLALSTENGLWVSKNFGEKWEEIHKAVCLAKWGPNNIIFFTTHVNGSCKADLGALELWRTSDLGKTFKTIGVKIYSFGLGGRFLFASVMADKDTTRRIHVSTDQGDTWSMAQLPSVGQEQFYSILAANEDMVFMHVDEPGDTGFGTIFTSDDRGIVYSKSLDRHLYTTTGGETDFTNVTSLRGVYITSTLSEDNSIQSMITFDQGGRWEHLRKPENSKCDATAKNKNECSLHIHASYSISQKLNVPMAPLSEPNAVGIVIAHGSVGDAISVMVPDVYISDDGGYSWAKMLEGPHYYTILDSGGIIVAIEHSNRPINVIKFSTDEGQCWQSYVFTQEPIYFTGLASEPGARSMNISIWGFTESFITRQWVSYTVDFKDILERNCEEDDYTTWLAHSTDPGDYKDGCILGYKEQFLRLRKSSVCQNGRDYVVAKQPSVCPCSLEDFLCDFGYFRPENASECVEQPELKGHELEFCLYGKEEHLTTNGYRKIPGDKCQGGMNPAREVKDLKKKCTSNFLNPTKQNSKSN
The data set can be described thus: Creoptix (GCI) binding kinetics, mouse Sortilin. The settings on record: Species Mouse, screened at 1 µM, 25 degrees Celsius. The protocol: (§4) Creoptix (GCI) method - using SEQ ID NO.4 (Murine sortillin)
(§5) A protein, bound to a surface, is bathed in a solution containing potential ligands giving rise to binding kinetics to generate Kon and Koff rates, as well as a Kd.
(§6) All buffers described were filtered using a 0.2µm filter (Product number: 10300461, Nalgene) and degassed for 15 minutes prior to use.
(§7) A flow cell temperature of 25 degrees Celsius was used throughout the experiment.
(§8) A 4PCH chip was conditioned across all flow cells using 0.2 X concentration running buffer (running buffer composition: 1XHBS-N, pH 7.4, 3.4 mM EDTA, 1% DMSO) using pre-set conditioning wizard (WAVE control software) injecting: 0.1 M borate, 1 M NaCl (pH 9) followed by three start-up injections of 0.2 X running buffer.
(§9) A buffer exchange was performed and 1x running buffer (1XHBS-N, pH 7.4, 3.4 mM EDTA, 1% DMSO) used during the immobilisation procedure: An initial injection of EDC/NHS (mixed in 1:1 ratio) was performed across all 4-flow cells to activate the surface for amine coupling of ligands.
(§10) Recombinant Sortilin aliquots were thawed quickly by hand and centrifuged at 13,300 rpm for 10 minutes. A 10 µg/ml protein solution was then made in pH 5.0 acetate and injected once for 20 minutes over flow-cells 2, 3 and 4 for human, human (flow cells 2 & 3), and mouse Sortilin respectively followed by a 60 second dissociation period.
(§11) A final 7-minute passivation injection of 50 mM tris was used across all flow cells.
(§12) A flow rate of 10 µl/min was used for all conditioning and immobilisation cycles.
(§13) Compounds were screened at 1 µM using the in-built 'intermediate binders' settings: 100 ul/min, 45 s baseline, 25 s association, 300 s dissociation, with blanks every 5th sample and a DMSO correction (1.5 % DMSO at the start and end of the experiment as well as every 20 cycles. An acquisition rate of 10 Hz was used throughout the experiment.
(§14) Compounds were screened at a final assay concentration of 1 µM and a final DMSO concentration was 1 %. To achieve this, compounds were diluted in DMSO from 10 mM stocks to 100 µM (100 x final assay concentration) then diluted 1:100 in running buffer which contained no DMSO to establish a final assay concentration of compound of 1 µM and a final DMSO concentration of 1 % [DMSO].
(§15) Compounds and DMSO were mixed by plate shaking at 1000 rpm for 60 seconds using a Bioshake instrument.
(§16) A flow rate of 100 µl/min was used throughout the experiment.
(§17) Data was evaluated using the RAPID kinetic analysis tool in the GCI WAVE_control software with data fitted using a standard 1:1 kinetic BioModel.

For data set [5], the target named is T3, Sortilin (Homo sapiens, UniProt Q99523).
T3 construct: purchased Bio-Techne Ltd 3154-ST-050
T3 sequence (Q99523 78-755 limits assumed): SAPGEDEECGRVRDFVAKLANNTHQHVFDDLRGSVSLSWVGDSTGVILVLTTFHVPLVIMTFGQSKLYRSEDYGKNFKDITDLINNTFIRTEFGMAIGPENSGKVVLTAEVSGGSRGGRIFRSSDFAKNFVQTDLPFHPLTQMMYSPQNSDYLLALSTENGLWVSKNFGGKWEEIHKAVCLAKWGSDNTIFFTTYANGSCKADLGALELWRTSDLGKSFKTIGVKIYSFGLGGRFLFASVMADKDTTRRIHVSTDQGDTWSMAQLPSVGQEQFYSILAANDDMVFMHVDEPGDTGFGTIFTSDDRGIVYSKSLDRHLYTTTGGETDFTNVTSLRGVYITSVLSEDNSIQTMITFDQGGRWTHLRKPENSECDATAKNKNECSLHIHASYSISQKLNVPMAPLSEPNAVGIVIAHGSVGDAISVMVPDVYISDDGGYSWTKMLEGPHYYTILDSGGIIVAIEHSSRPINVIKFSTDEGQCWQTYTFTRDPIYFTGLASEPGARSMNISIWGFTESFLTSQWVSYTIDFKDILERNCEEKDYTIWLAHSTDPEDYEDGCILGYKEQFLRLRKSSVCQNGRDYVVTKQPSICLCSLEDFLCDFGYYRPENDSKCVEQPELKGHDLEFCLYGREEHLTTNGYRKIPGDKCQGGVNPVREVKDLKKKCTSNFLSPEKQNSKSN
In words: Creoptix (GCI) binding kinetics, human Sortilin. The settings on record: Species Human, screened at 1 µM, 25 degrees Celsius. The protocol: as §4, §5, §6, §7, §8, §9, §10, §11, §12, §13, §14, §15, §16, §17

Where “and” joins values, the source holds several entries; their conditions need not be identical. Equal entries are not always repeated. A value given as a limit tells only on which side of the number the result lay.

Method for in vivo: as §18, §19, §20, §21

Regarding `Cc1cccc(NC(=O)c2ccc(C(F)(F)F)cc2C(=O)O)n1` [Comparative Example 1], in the data set “in vitro [1]”, the fraction unbound (in general, free concentration divided by total concentration) at 4 h, 5 µM is 0.068. Besides, the “Brain to plasma ratio %” value in data set [2] is below 1%. Besides, the fraction unbound at 4 h, 5 µM in “in vitro [3]” was 0.273. In “in vivo”, this compound had a Kp uu at 0.5 h below 0.1. Also, in the data set “in vivo” (3 mg/kg), the Kp at 0.5 h was below 0.01; the concentration at 0.5 h is 3090 ng/mL and 5 ng/g.

On to `C[C@H](N[C@@H](CCC(C)(C)C)C(=O)O)c1ccc2c(c1)CCOC2` [Example 59], for which the IC50 – broadly, the concentration that inhibits the measured activity by half – on h-Sortilin was 320 nM. For the same compound, the Kd (as a rule, the concentration at which binding is half-saturated) on Sortilin [4] (Form of Compound Mesylate salt) amounted to 204 nM; on Sortilin [5] (Form of Compound Mesylate salt), 218 nM.

For `C[C@H](N[C@@H](CCC(C)(C)C)C(=O)O)c1ccc2c(c1)OCO2` [Example 70], on h-Sortilin, the IC50 was 530 nM. Also, the Kd at Sortilin [4] (Form of Compound Free acid) stood at 116 nM; at Sortilin [5] (Form of Compound Free acid), 133 nM.

(Values after patent EP4342530A1, “SORTILIN MODULATORS” (Insusense ApS, priority 2022, dated 2024).)
